Common to all, as to assay type: binding
Experiment [1] has as its target T1, HeLa cell extract proteins (Homo sapiens, UniProt P23381).
T1 construct: endogenous in cells; host or cells: HeLa cell extract
T1 sequence (P23381 1-471): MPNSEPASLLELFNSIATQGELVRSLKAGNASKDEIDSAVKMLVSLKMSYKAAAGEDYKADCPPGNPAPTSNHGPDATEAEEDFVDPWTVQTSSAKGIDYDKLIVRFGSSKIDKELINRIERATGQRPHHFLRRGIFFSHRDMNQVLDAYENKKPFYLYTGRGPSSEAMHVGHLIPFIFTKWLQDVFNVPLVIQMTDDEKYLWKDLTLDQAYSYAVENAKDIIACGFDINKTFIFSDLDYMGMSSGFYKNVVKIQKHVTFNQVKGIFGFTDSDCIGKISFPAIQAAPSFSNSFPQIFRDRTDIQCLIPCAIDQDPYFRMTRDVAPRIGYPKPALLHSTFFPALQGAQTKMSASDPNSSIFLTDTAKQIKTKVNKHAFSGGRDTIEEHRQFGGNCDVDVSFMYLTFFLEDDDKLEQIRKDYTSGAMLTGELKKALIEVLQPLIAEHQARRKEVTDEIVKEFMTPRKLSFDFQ

Experiment [2] has as its target T2, HeLa cell extract proteins (Homo sapiens, UniProt Q15392).
T2 construct: endogenous in cells; host or cells: HeLa cell extract
T2 sequence (Q15392 23-516): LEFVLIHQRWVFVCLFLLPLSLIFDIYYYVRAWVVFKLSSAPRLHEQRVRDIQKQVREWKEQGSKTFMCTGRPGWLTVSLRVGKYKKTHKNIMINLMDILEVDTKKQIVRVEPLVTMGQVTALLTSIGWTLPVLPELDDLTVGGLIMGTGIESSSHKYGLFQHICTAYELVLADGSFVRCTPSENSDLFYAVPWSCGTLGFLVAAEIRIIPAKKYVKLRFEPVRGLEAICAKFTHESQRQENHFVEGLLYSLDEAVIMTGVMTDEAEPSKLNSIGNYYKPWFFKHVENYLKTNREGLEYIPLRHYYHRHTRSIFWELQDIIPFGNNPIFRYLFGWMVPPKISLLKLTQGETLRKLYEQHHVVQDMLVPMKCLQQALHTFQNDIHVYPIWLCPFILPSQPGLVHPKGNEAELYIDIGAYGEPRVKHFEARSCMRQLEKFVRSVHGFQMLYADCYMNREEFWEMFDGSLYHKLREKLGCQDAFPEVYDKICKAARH

The target of experiment [3] is T3, HeLa cell extract proteins (Homo sapiens, UniProt P12956).
T3 construct: endogenous in cells; host or cells: HeLa cell extract

Experiment [4] addresses T4, HeLa cell extract proteins (Homo sapiens, UniProt Q13155).
T4 construct: endogenous in cells; host or cells: HeLa cell extract
T4 sequence (Q13155 1-320): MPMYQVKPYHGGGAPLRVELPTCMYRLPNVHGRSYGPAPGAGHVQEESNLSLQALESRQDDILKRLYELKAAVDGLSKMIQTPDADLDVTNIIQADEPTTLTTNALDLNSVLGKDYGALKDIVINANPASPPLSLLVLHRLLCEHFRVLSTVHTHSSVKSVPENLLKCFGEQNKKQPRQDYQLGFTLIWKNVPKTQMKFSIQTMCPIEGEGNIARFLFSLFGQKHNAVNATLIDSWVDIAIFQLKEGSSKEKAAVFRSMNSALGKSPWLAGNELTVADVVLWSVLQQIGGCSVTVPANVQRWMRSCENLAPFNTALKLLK

In experiment [5] the target is T5, HeLa cell extract proteins (Homo sapiens, UniProt O15269).
T5 construct: endogenous in cells; host or cells: HeLa cell extract
T5 sequence (O15269 1-473): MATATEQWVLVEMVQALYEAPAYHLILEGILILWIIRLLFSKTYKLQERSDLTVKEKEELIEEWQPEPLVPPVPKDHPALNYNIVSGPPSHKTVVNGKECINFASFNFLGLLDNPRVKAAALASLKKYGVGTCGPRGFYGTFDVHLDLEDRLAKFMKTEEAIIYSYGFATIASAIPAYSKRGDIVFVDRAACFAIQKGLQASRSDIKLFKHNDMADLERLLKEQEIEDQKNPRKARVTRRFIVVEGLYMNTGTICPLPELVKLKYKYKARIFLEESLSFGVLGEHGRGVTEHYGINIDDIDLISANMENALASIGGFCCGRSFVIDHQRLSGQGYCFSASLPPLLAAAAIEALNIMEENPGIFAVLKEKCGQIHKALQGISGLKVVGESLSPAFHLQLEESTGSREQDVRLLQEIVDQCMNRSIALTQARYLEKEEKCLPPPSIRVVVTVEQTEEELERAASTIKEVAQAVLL

The target of experiment [6] is T6, HeLa cell extract proteins (Homo sapiens, UniProt P09622).
T6 construct: endogenous in cells; host or cells: HeLa cell extract
T6 sequence (P09622 36-509): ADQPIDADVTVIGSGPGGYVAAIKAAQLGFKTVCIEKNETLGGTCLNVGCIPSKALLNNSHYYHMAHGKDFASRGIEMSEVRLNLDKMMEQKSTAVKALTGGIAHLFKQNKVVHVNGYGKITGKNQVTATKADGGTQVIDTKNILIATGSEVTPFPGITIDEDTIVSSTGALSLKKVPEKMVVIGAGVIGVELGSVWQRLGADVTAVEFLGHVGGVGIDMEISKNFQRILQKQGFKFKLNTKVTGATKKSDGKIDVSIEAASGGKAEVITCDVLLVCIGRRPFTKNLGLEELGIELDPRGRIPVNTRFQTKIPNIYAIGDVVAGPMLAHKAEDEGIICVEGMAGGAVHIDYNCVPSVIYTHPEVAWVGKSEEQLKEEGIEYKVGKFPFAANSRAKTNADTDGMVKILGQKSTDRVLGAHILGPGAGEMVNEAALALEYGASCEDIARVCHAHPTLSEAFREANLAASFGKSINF

Experiment [7] concerns the target T7, HeLa cell extract proteins (Homo sapiens, UniProt O43242).
T7 construct: endogenous in cells; host or cells: HeLa cell extract

The target of experiment [8] is T8, HeLa cell extract proteins (Homo sapiens, UniProt P56589).
T8 construct: endogenous in cells; host or cells: HeLa cell extract
T8 sequence (P56589 1-373): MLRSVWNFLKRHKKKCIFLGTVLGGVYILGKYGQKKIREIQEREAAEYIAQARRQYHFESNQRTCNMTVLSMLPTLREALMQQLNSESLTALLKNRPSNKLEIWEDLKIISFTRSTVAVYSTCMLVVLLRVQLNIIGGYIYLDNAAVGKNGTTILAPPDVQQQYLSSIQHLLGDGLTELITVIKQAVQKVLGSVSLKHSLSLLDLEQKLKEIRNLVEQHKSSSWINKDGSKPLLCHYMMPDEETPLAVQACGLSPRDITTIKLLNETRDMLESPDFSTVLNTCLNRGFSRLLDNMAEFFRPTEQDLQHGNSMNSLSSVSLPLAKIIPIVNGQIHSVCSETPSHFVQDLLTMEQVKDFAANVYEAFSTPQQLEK

Setting [9] is: HeLa, protein DHCR24 (24-DEHYDROC[…] PRECURSOR).

Molecules are shown by their SMILES. Like-named read-outs stand apart in the source and are kept apart here.

T3 sequence (P12956 whole entry): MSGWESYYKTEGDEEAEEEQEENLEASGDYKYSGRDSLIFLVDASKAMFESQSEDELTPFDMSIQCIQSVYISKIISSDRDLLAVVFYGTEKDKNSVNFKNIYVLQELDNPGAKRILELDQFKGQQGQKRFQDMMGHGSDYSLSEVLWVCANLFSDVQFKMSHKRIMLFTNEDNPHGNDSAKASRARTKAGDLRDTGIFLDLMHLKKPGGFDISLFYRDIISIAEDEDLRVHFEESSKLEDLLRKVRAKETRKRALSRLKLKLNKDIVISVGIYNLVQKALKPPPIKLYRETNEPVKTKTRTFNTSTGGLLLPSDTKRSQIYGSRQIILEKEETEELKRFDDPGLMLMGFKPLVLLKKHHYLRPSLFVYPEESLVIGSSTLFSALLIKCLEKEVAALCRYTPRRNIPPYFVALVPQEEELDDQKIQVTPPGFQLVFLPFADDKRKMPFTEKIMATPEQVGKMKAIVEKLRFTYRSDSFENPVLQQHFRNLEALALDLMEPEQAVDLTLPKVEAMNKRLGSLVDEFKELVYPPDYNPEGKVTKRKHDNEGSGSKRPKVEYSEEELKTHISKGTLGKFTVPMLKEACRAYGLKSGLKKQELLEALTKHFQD
T7 sequence (O43242 whole entry): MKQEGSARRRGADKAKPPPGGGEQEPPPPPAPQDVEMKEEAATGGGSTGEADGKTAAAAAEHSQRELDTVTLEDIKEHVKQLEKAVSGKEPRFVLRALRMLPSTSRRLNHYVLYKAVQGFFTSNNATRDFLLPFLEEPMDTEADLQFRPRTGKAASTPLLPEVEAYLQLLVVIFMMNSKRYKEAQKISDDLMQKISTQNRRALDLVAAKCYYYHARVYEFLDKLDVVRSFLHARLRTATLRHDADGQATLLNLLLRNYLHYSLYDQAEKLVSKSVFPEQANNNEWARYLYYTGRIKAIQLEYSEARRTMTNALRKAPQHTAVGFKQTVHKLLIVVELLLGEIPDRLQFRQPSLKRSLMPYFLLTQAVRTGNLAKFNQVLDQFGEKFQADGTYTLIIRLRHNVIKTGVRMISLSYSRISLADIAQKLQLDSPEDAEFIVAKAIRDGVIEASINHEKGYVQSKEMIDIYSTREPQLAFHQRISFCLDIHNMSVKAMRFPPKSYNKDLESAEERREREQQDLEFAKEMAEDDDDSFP

On to `Nc1nc2cccc(-c3ccccc3)c2n1Cc1ccc(Cl)c(Cl)c1` [compound 3], for which the “fold changes relative to vehicle control” value in experiment [1] (protein WARS, HeLa) worked out at 0.9; in experiment [2] (protein DHCR24, HeLa), 1.02; in experiment [3] (protein XRCC6, HeLa), 0.92; in experiment [4] (captured protein JTV1, HeLa), 0.89; in experiment [5] (captured protein SPTLC1, HeLa) it was 1.09; in experiment [6] (HeLa, protein DLD) it was 1.01. Besides, the “fold changes relative to vehicle control” value in experiment [7] (protein PSMD3, HeLa) is 1.1; in experiment [8] (HeLa, protein PEX3), 0.92.
Consider `NCCOCCOCC(=O)Nc1nc2ncc(CNc3ccc(C(=O)NC(CCC(=O)O)C(=O)O)cc3)nc2c(=O)[nH]1` (centres unmarked) [compound 6], for which the “fold changes relative to vehicle control” value in experiment [1] (protein WARS, HeLa) came out at 1.19; in experiment [2] (HeLa, protein DHCR24 (24-DEHYDROCHOLESTEROL REDUCTASE PRECURSOR)), 0.88; in experiment [3] (HeLa, protein XRCC6), 1.09; in experiment [4] (HeLa, captured protein JTV1) it was 0.89; in experiment [5] (HeLa, protein SPTLC1), 0.95; in experiment [6] (HeLa, captured protein DLD), 0.99. Besides, the “fold changes relative to vehicle control” value in experiment [7] (protein PSMD3, HeLa) turned out to be 1.17; in experiment [8] (HeLa, captured protein PEX3), 1.
With `Nc1nc2[nH]cc(CCc3ccc(C(=O)N[C@@H](CCC(=O)O)C(=O)O)cc3)c2c(=O)[nH]1` [PTX, pemetrexed], the “fold changes relative to vehicle control” value is listed as 1.02 in experiment [1]; 1.05 in experiment [2]; 1.02 in experiment [3]; 0.9 in experiment [4]; 0.95 in experiment [5]; 0.96 in experiment [6]. In addition, the “fold changes relative to vehicle control” value is listed as 1.1 in experiment [7] and 0.95 in experiment [8].
For the compound `Nc1nc2c(c(=O)[nH]1)N(C=O)C(CNc1ccc(C(=O)N[C@@H](CCC(=O)O)C(=O)O)cc1)CN2` (some centres unmarked) [LEU, leucovorin], the “fold changes relative to vehicle control” value in experiment [1] (protein WARS, HeLa) is recorded as 0.95; in experiment [2] (setting [9]) it was 1.13; in experiment [3] (HeLa, protein XRCC6) it was 0.96; in experiment [4] (HeLa, captured protein JTV1), 1.04; in experiment [5] (HeLa, protein SPTLC1) it was 0.9; in experiment [6] (HeLa, captured protein DLD), 1.01. In addition, the “fold changes relative to vehicle control” value in experiment [7] (protein PSMD3, HeLa) turned out to be 1.08; in experiment [8] (HeLa, captured protein PEX3), 1.02.
On to `CCCCCCOc1ccc(Cc2cnc(N)nc2N)cc1` [compound 1], for which the “fold changes relative to vehicle control” value was determined as 0.96 in experiment [1] (protein WARS, HeLa); 1.03 in experiment [2] (protein DHCR24, HeLa); 1.13 in experiment [3] (protein XRCC6, HeLa); 1.04 in experiment [4] (captured protein JTV1, HeLa); 0.8 in experiment [5] (captured protein SPTLC1, HeLa); 0.96 in experiment [6] (HeLa, protein DLD). Moreover, the “fold changes relative to vehicle control” value in experiment [7] (protein PSMD3, HeLa) stood at 1.21; in experiment [8] (HeLa, protein PEX3), 0.94.
For the compound `NCCCNc1ccc(C(=O)NC(CCC(=O)O)C(=O)O)cc1` (centres unmarked) [compound 7], the “fold changes relative to vehicle control” value was determined as 0.98 in experiment [1] (protein WARS, HeLa); 1.03 in experiment [2] (setting [9]); 0.92 in experiment [3] (HeLa, protein XRCC6); 0.85 in experiment [4] (HeLa, captured protein JTV1); 1.03 in experiment [5] (HeLa, protein SPTLC1); 1.03 in experiment [6] (HeLa, captured protein DLD). The “fold changes relative to vehicle control” value in experiment [7] (protein PSMD3, HeLa) is recorded as 1.02; in experiment [8] (HeLa, captured protein PEX3), 0.97.
Regarding `CCCCCCOc1cccc(Cc2cnc(N)nc2N)c1` [compound 2], the “fold changes relative to vehicle control” value came to 1.71 in experiment [1] (protein WARS, HeLa); 0.83 in experiment [2] (protein DHCR24, HeLa); 1.93 in experiment [3] (protein XRCC6, HeLa); 1.16 in experiment [4] (captured protein JTV1, HeLa); 1.03 in experiment [5] (captured protein SPTLC1, HeLa); 0.42 in experiment [6] (HeLa, protein DLD). Moreover, the “fold changes relative to vehicle control” value amounted to 1.51 in experiment [7] (protein PSMD3, HeLa) and 0.93 in experiment [8] (HeLa, protein PEX3).

These data come from publication PMC6199744, “Development of Chemical Proteomics for the Folateome and Analysis of the Kinetoplastid Folateome” (ACS Infectious Diseases, 2018).
